Data reported in PubChem BioAssay AID1259407 (Chemical Carcinogenesis Research Information System (CCRIS), 2018).
Activity calls are given as the source filed them. How the calls were made is not given here.

Test system: CCRIS mutagenicity, Ames/micronucleus/aberration tests
Assay: CCRIS mutagenicity studies
[1] = Test System: AMES SALMONELLA TYPHIMURIUM, Strain/Indicator: TA98, Metabolic Activation: NONE, Method: STANDARD PLATE
[2] = Test System: AMES SALMONELLA TYPHIMURIUM, Strain/Indicator: TA100, Metabolic Activation: NONE, Method: STANDARD PLATE

For `Cn1cnc([N+](=O)[O-])c1Sc1ncnc2nc[nH]c12`, the mutagenic call (Test System: AMES SALMONELLA TYPHIMURIUM, Strain/Indicator: TA98, Metabolic Activation: HAMSTER, LIVER, S-9, AROCLOR 1254 (30%), Method: PREINCUBATION) was “inactive; negative”, the mutagenic call (Test System: AMES SALMONELLA TYPHIMURIUM, Strain/Indicator: TA98, Metabolic Activation: NONE, Method: PREINCUBATION) was “inactive; negative” and the mutagenic call (Test System: AMES SALMONELLA TYPHIMURIUM, Strain/Indicator: TA98, Metabolic Activation: RAT, LIVER, S-9, AROCLOR 1254 (30%), Method: PREINCUBATION) was “inactive; negative”. The mutagenic call (Test System: AMES SALMONELLA TYPHIMURIUM, Strain/Indicator: TA100, Metabolic Activation: HAMSTER, LIVER, S-9, AROCLOR 1254 (30%), Method: PREINCUBATION) was “active; positive”, the mutagenic call (Test System: AMES SALMONELLA TYPHIMURIUM, Strain/Indicator: TA100, Metabolic Activation: NONE, Method: PREINCUBATION) was “active; positive” and the mutagenic call (Test System: AMES SALMONELLA TYPHIMURIUM, Strain/Indicator: TA100, Metabolic Activation: RAT, LIVER, S-9, AROCLOR 1254 (30%), Method: PREINCUBATION) was “active; positive”.

`O=[N+]([O-])c1ccccc1SS/C(Cl)=C(\Cl)C(Cl)=C(Cl)Cl` was tested, and the mutagenic call (Test System: AMES SALMONELLA TYPHIMURIUM, Strain/Indicator: TA100(DNP6), Metabolic Activation: NONE, Method: PREINCUBATION) was “active; positive” and the mutagenic call (Test System: AMES SALMONELLA TYPHIMURIUM, Strain/Indicator: TA100(NR), Metabolic Activation: NONE, Method: PREINCUBATION) was “active; positive”.

For `O=C(Nc1ccccc1F)c1csc([N+](=O)[O-])c1`, the mutagenic call [1] was “active; positive” and the mutagenic call [2] was “active; positive”.

In the case of `C/C=N/O`, the mutagenic call (Test System: AMES SALMONELLA TYPHIMURIUM, Strain/Indicator: TA98, Metabolic Activation: HAMSTER, LIVER, S-9, AROCLOR 1254, Method: STANDARD PLATE) is reported as “inactive; negative”, the mutagenic call [1] is reported as “inactive; negative” and the mutagenic call (Test System: AMES SALMONELLA TYPHIMURIUM, Strain/Indicator: TA98, Metabolic Activation: RAT, LIVER, S-9, AROCLOR 1254, Method: STANDARD PLATE) is reported as “inactive; negative”. For the same compound, the mutagenic call (Test System: AMES SALMONELLA TYPHIMURIUM, Strain/Indicator: TA100, Metabolic Activation: HAMSTER, LIVER, S-9, AROCLOR 1254, Method: STANDARD PLATE) was “inactive; negative”, the mutagenic call [2] was “inactive; negative” and the mutagenic call (Test System: AMES SALMONELLA TYPHIMURIUM, Strain/Indicator: TA100, Metabolic Activation: RAT, LIVER, S-9, AROCLOR 1254, Method: STANDARD PLATE) was “inactive; negative”. For the same compound, the mutagenic call (Test System: AMES SALMONELLA TYPHIMURIUM, Strain/Indicator: TA102, Metabolic Activation: RAT, LIVER, S-9, PHENOBARBITAL AND 5,6-BENZOFLAVONE, Method: STANDARD PLATE) was “inactive; negative”, the mutagenic call (Test System: AMES SALMONELLA TYPHIMURIUM, Strain/Indicator: TA1535, Metabolic Activation: HAMSTER, LIVER, S-9, AROCLOR 1254, Method: STANDARD PLATE) was “inactive; negative” and the mutagenic call (Test System: AMES SALMONELLA TYPHIMURIUM, Strain/Indicator: TA1535, Metabolic Activation: NONE, Method: STANDARD PLATE) was “inactive; negative”. For the same compound, the mutagenic call (Test System: AMES SALMONELLA TYPHIMURIUM, Strain/Indicator: TA1535, Metabolic Activation: RAT, LIVER, S-9, AROCLOR 1254, Method: STANDARD PLATE) was “inactive; negative”, the mutagenic call (Test System: AMES SALMONELLA TYPHIMURIUM, Strain/Indicator: TA1537, Metabolic Activation: HAMSTER, LIVER, S-9, AROCLOR 1254, Method: STANDARD PLATE) was “inactive; negative” and the mutagenic call (Test System: AMES SALMONELLA TYPHIMURIUM, Strain/Indicator: TA1537, Metabolic Activation: NONE, Method: STANDARD PLATE) was “inactive; negative”. The mutagenic call (Test System: AMES SALMONELLA TYPHIMURIUM, Strain/Indicator: TA1537, Metabolic Activation: RAT, LIVER, S-9, AROCLOR 1254, Method: STANDARD PLATE) was “inactive; negative”, the mutagenic call (Test System: AMES SALMONELLA TYPHIMURIUM, Strain/Indicator: TA1538, Metabolic Activation: HAMSTER, LIVER, S-9, AROCLOR 1254, Method: STANDARD PLATE) was “inactive; negative” and the mutagenic call (Test System: AMES SALMONELLA TYPHIMURIUM, Strain/Indicator: TA1538, Metabolic Activation: NONE, Method: STANDARD PLATE) was “inactive; negative”. For the same compound, the mutagenic call (Test System: AMES SALMONELLA TYPHIMURIUM, Strain/Indicator: TA1538, Metabolic Activation: RAT, LIVER, S-9, AROCLOR 1254, Method: STANDARD PLATE) was “inactive; negative”, the mutagenic call (Test System: AMES SALMONELLA TYPHIMURIUM, Strain/Indicator: TA2638, Metabolic Activation: RAT, LIVER, S-9, PHENOBARBITAL AND 5,6-BENZOFLAVONE, Method: STANDARD PLATE) was “inactive; negative” and the mutagenic call (Test System: E. COLI, Strain/Indicator: WP2 (PKM101), Metabolic Activation: RAT, LIVER, S-9, PHENOBARBITAL AND 5,6-BENZOFLAVONE, Method: STANDARD PLATE) was “inactive; negative”. For the same compound, the mutagenic call (Test System: E. COLI, Strain/Indicator: WP2 UVRA (PKM101), Metabolic Activation: RAT, LIVER, S-9, PHENOBARBITAL AND 5,6-BENZOFLAVONE, Method: STANDARD PLATE) was “inactive; negative”, the mutagenic call (Test System: MOUSE LYMPHOMA, Strain/Indicator: L5178Y (TK+/TK-), Metabolic Activation: RAT, LIVER, S-9, AROCLOR 1254, Method: SUSPENSION/PLATE) was “active; positive. reevaluation of results: inconclusive” and the mutagenic call (Test System: Mouse lymphoma, Strain/Indicator: L5178Y (tk+tk-), Metabolic Activation: None, Method: Suspension/plate) was “inactive; negative”. For the same compound, the mutagenic call (Test System: Mouse lymphoma, Strain/Indicator: L5178Y (tk+tk-), Metabolic Activation: Rat, Liver, S-9, Aroclor 1254, Method: Suspension/plate) was “active; inconclusive (previously evaluated positive)”.
